Source: patent EP4035684A1, “AFFINITY ILLUDOFULVENE CONJUGATES” (AF Chemical LLC, priority 2019, dated 2022)
*1 amine or outer side, *2 acyl side, *3 side chain or, on linkers, in order; H or OH if unused. Where a SMILES comes first, the peptide text is derived from it. [ ]: non-standard residue; d: D form. The star is where a group is joined. ξ: configuration not given here. X2 = CC1=C(CCCN*)C2=C(C)C3(CC3)[C@@](C)(O)C(=O)C2=C1; X4 = CC1=C(C*)C2=C(C)C3(CC3)[C@@](C)(O)C(=O)C2=C1; Morpholide = C1CN(*)CCO1; CO = O=C([*:1])[*:2]; ξC = NC(CS)C(=O)O

Key:
MV522 cell line [1] = test: 48 hour exposure, growth or viability by Trypan Blue Exclusion assay, target cell line; assay type: cell-based; conditions: read-out: Mean IC50 value (nM) ± SD, N=3 unless otherwise indicated
8392B cell line [2] = test: cells; assay type: cell-based
NCI 60 cell line panel [3] = test: NCI DTP 60 cell line screen assay; conditions: for Cytotoxicity: ability to actually kill tumor cells versus only inhibiting growth
Text: An ADC is engulfed by a tumor cell, transported to the endosomes (pH < 6.0) and then into the lysozomes (pH < 4). […] 4) Cancer cells can become resistant to various toxins and drugs through the development of what is termed multi-drug resistance. This process is known to occur through several different mechanisms.

MV522 cell line [4] = test: cells; assay type: cell-based
8392B cell line [5] = test: Two hour toxicity: inhibition of DNA synthesis activity, nontarget cell line; assay type: cell-based
NCI 60 cell line panel [6] = conditions: cited from earlier work; for CC50: human, nci 60 cell lines; for Mean TGI cytostatic / GI50: mean over NCI DTP 60 cell lines; for GI50: read-out: Mean GI50 inhibition
[7] = test system: Prostate LnCAP (positive PSA); test: Activity of PSA cleavable analogs against PSA positive cell line, 48 hour exposure; assay type: cell-based; conditions: N=3, mean ± SD
[8] = test system: Prostate PC3 (negative PSA); test: Activity of PSA cleavable analogs against PSA negative cell line, 48 hour exposure; assay type: cell-based; conditions: N=3, mean ± SD
[9] = test system: Prostate DuPro (trace PSA); test: Activity of PSA cleavable analogs against trace PSA cell line, 48 hour exposure; assay type: cell-based; conditions: N=3, mean ± SD
[10] = read-out: Mean IC50 value (nM) ± SD, N=3 unless otherwise indicated, 8392B Nontarget Cell Line, 48 hr exposure, 8392B nontarget cell line, mean ± SD, N=3 unless otherwise indicated
[11] = MV522, 2 h, read-out: Mean IC50 value (nM) ± SD, N=3 unless otherwise indicated, MV522 Target Cell Line, 2 hr exposure
[12] = read-out: Mean IC50 value (nM) ± SD, N=3 unless otherwise indicated, 8392B Nontarget Cell Line, 2 hr exposure, 8392B nontarget cell line, 2 hr exposure, mean ± SD, N=3 unless otherwise indicated
[13] = read-out: Mean IC50 value (nM) ± SD, N=3 unless otherwise indicated, MV522 Target Cell Line, 2 hr exposure, MV522 target cell line, 2 hr exposure, mean ± SD, N=3 unless otherwise indicated

Compound	IC50 (MV522 cell line [1])	IC50 (8392B cell line [2]; [10])	IC50 (8392B cell line [5]; [12])	IC50 (MV522 cell line [4]; [13])	other results
CC(=O)ON(C(C)=O)c1ccc(C(=O)OC[C@]2(C)C=C3C(=O)[C@](C)(O)C4(CC4)C(C)=C3C2OC(=O)c2ccc(N(OC(C)=O)C(C)=O)cc2)cc1 (some centres unmarked) [compound 140]	> 14000 nM	> 14000 nM			
COC(=O)C1=C(C(=O)OC)C23C=C(C)C1C2=C(C)C1(CC1)[C@@](C)(O)C3=O (some centres unmarked) [compound 142]	24 ± 7 nM				MDR Activity (NCI 60 cell line panel [3]): Yes; Cytotoxicity (NCI 60 cell line panel [3]): Yes
CC(=O)OCC1(C)C=C2C(=O)[C@](C)(O)C3(CC3)C(C)=C2C1O (some centres unmarked) [compound 159]	120 ± 10 nM		13700 nM		MDR Activity (NCI 60 cell line panel [3]): Yes; Cytotoxicity (NCI 60 cell line panel [3]): Yes; IC50 (MV522 cell line [4]; [11]): 2700 ± 400 nM; IC50 (8392B cell line [2]; 48 h, read-out: Mean IC50 value (nM) ± SD, N=3 unless otherwise indicated, 8392B Nontarget Cell Line, 48 hr exposure): < 10 nM
CC1=C(CCCNS(=O)(=O)NO)C2=CC3(CC3)C(C)(O)C(=O)C2=C1 (centres unmarked) [compound 265]	8 ± 1 nM			810 ± 20 nM	
CC[C@H](C)[C@H](NC(=O)[C@H]1CCCCN1C)C(=O)N(COC(=O)CC(C)C)[C@H](C[C@@H](OC(C)=O)c1nc(C(=O)N[C@@H](Cc2ccc(O)cc2)C[C@H](C)C(=O)O)cs1)C(C)C [Tubulysin A]					CC50 (NCI 60 cell line panel [6]): > 10 µM; Mean TGI cytostatic (NCI 60 cell line panel [6]): 1,318 nM; GI50 (NCI 60 cell line panel [6]): 0.012 µM
CC1=C(CNC(=O)NCCCl)C2=C(C)C3(CC3)[C@@](C)(O)C(=O)C2=C1 [compound 282]		> 8500 nM	> 85000 nM	680 ± 60 nM	
CC1=CC2=C(C)C3(CC3)C(C)(O)C(=NO)C2=C1 (centres unmarked) [compound 224]	> 130000 nM	> 130000 nM	> 200000 nM	> 200000 nM	
CC(=O)N1C[C@H](O)C[C@H]1C(=O)N[C@@H](CO)C(=O)N[C@@H](CO)C(=O)N[C@H](C(=O)N[C@@H](CCC(N)=O)C(=O)N[C@@H](CO)C(=O)N[C@@H](CO)C(=O)N1CCC[C@H]1C(=O)O[C@@H]1C2=C(C)C3(CC3)[C@@](C)(O)C(=O)C2=C[C@@]1(C)CO[Si](C)(C)C(C)(C)C)C1CCCCC1 [compound 215]	490 ± 120 nM				IC50 [7]: > 20 µM
CC(=O)Oc1ccc(-n2nnnc2SCC2=C(C)C=C3C(=O)[C@](C)(O)C4(CC4)C(C)=C32)cc1 [compound 155]	3600 ± 400 nM	9100 ± 1100 nM	17000 nM	8200 ± 1200 nM	
CC1=C(CCCNS(=O)(=O)c2ccc(C)cc2)C2=C(C)C3(CC3)[C@@](C)(O)C(=O)C2=C1 [compound 242]	580 ± 150 nM				
CC1=C(CNC(=O)NCCO)C2=C(C)C3(CC3)[C@@](C)(O)C(=O)C2=C1 [compound 279]	190 ± 20 nM	> 9000 nM	> 90000 nM		
COc1cc2cc(c1Cl)N(C)C(=O)C[C@H](OC(=O)[C@H](C)N(C)C(C)=O)[C@]1(C)O[C@H]1[C@H](C)[C@@H]1C[C@@](O)(NC(=O)O1)[C@H](OC)/C=C/C=C(\C)C2 [Maytansine]					Mean TGI cytostatic (NCI 60 cell line panel [6]): 318 nM
CC1=C(CSC[C@H](NC(=O)[C@H](CCCNC(=N)N)NC(=O)CNC(=O)[C@H](CC(N)=O)NC(=O)[C@@H](N)CSCC2=C(C)C=C3C(=O)[C@](C)(O)C4(CC4)C(C)=C32)C(=O)O)C2=C(C)C3(CC3)[C@@](C)(O)C(=O)C2=C1 [compound 100] (H-C(X4)NGRC(X4)-OH)	1700 ± 500 nM			> 10000 nM	
CC1=C(CCCNC(=O)NCCO)C2=C(C)C3(CC3)[C@@](C)(O)C(=O)C2=C1 [compound 280]	< 80 nM	> 2800 nM	> 83000 nM		
CC1=C(Cn2ccc(=O)[nH]c2=O)C2=C(C)C3(CC3)[C@@](C)(O)C(=O)C2=C1 [compound 289]	530 ± 150 nM	> 8800 nM	> 290000 nM	51 ± 4 nM	
CC1=C(CO)C2=C(C)C3(CC3)[C@@](C)(O)C(=O)C2=C1 [compound 002]					MDR Activity (NCI 60 cell line panel [3]): Yes; Activity Value (NCI 60 cell line panel [3]; negative = lyses tumor cells, zero = no growth, positive = slower growth): -15; IC50 (MV522 cell line [4]; [11]): 110 ± 40 nM
CCCCCCCC/C=C/CCCCCCCC(=O)OCC1=C(C)C=C2C(=O)[C@](C)(O)C3(CC3)C(C)=C21 [compound 226]	> 59000 nM	> 59000 nM	> 59000 nM	> 59000 nM	

Compound	IC50 (MV522 cell line [1])	IC50 (8392B cell line [2]; [10])	IC50 (8392B cell line [5]; [12])	IC50 (MV522 cell line [4]; [13])	other results
CC1=C(CNC(=O)NO)C2=C(C)C3(CC3)[C@@](C)(O)C(=O)C2=C1 [compound 277]	190 ± 20 nM	9800 nM	31000 nM		
CC1=C(CCCOC(=O)c2cn(CC3=C(C)C=C4C(=O)[C@](C)(O)C5(CC5)C(C)=C43)nn2)C2=C(C)C3(CC3)[C@@](C)(O)C(=O)C2=C1 [compound 257]	320 ± 30 nM				
C=C1C[C@H]2C=Nc3cc(OCCCOc4cc5c(cc4OC)C(=O)N4CC(=C)C[C@H]4C=N5)c(OC)cc3C(=O)N2C1 [Pyrrolobenzodiazepines]					Mean TGI cytostatic (NCI 60 cell line panel [6]): 302 nM; GI50 (NCI 60 cell line panel [6]): 0.007 µM
CC1=C(CSCC(N)C(=O)N[C@@H](CCCNC(=N)N)C(=O)NCC(=O)N[C@@H](CC(N)=O)C(=O)NC(CSCC2=C(C)C=C3C(=O)[C@](C)(O)C4(CC4)C(C)=C32)C(=O)O)C2=C(C)C3(CC3)[C@@](C)(O)C(=O)C2=C1 (some centres unmarked) [compound 101] (H-[ξC](X4)RGN[ξC](X4)-OH)	> 7500 nM			> 8000 nM	
CC1=C(CCCOC(=O)[C@@H]2CCCN2C(=O)[C@H](CO)NC(=O)OC(C)(C)C)C2=C(C)C3(CC3)[C@@](C)(O)C(=O)C2=C1 [compound 208]	930 ± 160 nM		25000 nM		
CC1=C2C(=CC(C)(O)C2O)C(=NO)C(C)(O)C12CC2 (centres unmarked) [compound 225]	55000 nM	33000 nM	> 350000 nM	47000 nM	
CO[C@@H]1[C@H](O)CC[C@]2(CO2)[C@H]1[C@@]1(C)O[C@@H]1CC=C(C)C [Fumagillol]					Mean TGI cytostatic (NCI 60 cell line panel [6]): 9,850 nM; GI50 (NCI 60 cell line panel [6]): 6.13 µM
CC(=O)N1C[C@H](O)C[C@H]1C(=O)N[C@@H](CO)C(=O)N[C@@H](CO)C(=O)N[C@H](C(=O)N[C@@H](CCC(N)=O)C(=O)N[C@@H](CO)C(=O)N[C@@H](CO)C(=O)N1CCC[C@H]1C(=O)O[C@@H]1C2=C(C)C3(CC3)[C@@](C)(O)C(=O)C2=CC1(C)C)C1CCCCC1 [compound 216]					IC50 [8]: 0.19 ± 0.01 µM; IC50 [9]: 0.28 ± 0.06 µM; IC50 [7]: 0.19 ± 0.03 µM
CC(=O)OCC1(C)C(OC(C)=O)C2=C(C)C3(CC3)C(C)(O)C(=O)C23CC31 (centres unmarked) [compound 250]	137000 nM	137000 nM	> 275000 nM	99000 nM	
COC(=O)C1=C(C(=O)OC)C23C=C(C)C1C2=C(C)C1(CC1)[C@@](C)(O)C3O (some centres unmarked) [compound 141]	3700 ± 800 nM		13700 ± 1900 nM		
CC1=C2C(=CC(C)(CO[Si](C)(C)C(C)(C)C)C2OC(=O)c2ccc(S(=O)(=O)F)cc2)C(=O)C(C)(O)C12CC2 (centres unmarked) [compound 219]	> 52 nM	> 52000 nM	> 52000 nM	> 52000 nM	
CC1=C2C(O)C(C)(C)C3CC23C(=O)C(C)(O)C12CC2 (centres unmarked) [compound 252]		> 380000 nM	> 380000 nM	> 380000 nM	
CC1=C(CCCNC(=O)[C@H](CC(C)C)NC(=O)[C@H](CCC(N)=O)NC(=O)[C@H](CC(C)C)NC(=O)[C@H](CCCCN)NC(=O)[C@H](CO)NC(=O)[C@H](CO)NC(=O)[C@H](Cc2c[nH]cn2)NC(=O)N2CCOCC2)C2=C(C)C3(CC3)[C@@](C)(O)C(=O)C2=C1 [compound 221] ({Morpholide-CO}-HSSKLQL-X2)	2500 nM	> 21000 nM	> 21000 nM	> 21000 nM	IC50 [8]: > 21 µM; IC50 [9]: 13 µM; IC50 [7]: 0.8 ± 0.1 µM
Halichondrin B					CC50 (NCI 60 cell line panel [6]): > 1 µM; Mean TGI cytostatic (NCI 60 cell line panel [6]): 199 nM
CC1=C(CO)C2=C(C)C3(CC3)[C@@](C)(O)C(=O)C2=C1 [analog 002, (6'R)-6'-hydroxy-3'-(hydroxymethyl)-2',4',6'-trimethylspiro[cyclopropane-1,5'-inden]-7'(6'H)-one]					IC50 (MV522 cell line [4]; MV522, 2 h, read-out: IC50 MV522): 110 nM; IC50 (8392B cell line [5]; 2 hour exposure, nontarget cell line, read-out: IC50 8392B): > 26000 nM
CC1=C(CCCOC(=O)NCCCl)C2=C(C)C3(CC3)[C@@](C)(O)C(=O)C2=C1 [compound 238]	57 ± 8 nM			780 ± 190 nM	
